Patent US12635686B2, “Compositions and methods for imposing seed quality” (priority 2014, dated 2026)

Experiments:
Type in all cases: in vivo
Inbred Seed Corn [1] = experiment: Warm germination test of harvested seed; conditions: for WARM GERM, sum: sum of the four size/shape categories
Excerpt: (§1) Seed quality can be evaluated by germination tests, such as warm germination, cold germination, and saturated cold germination. These types of tests are commonly used to predict seed germination and emergence. Among these tests, the saturated cold germination test exposes the seeds to cold, wet, and oxygen deficient stress, and is thus considered probative of seed germination viability over a range of field conditions. […]
(§2) • Crop: Inbred Seed Corn • Variety: D2905VT3P • Plot Location: New Haven, WI • Season/Year: Summer/2014 • Corn Stage at Application: to Full Dent • Moisture at Application: 44% • Application Equipment: Case Patriot Sprayer • Application Conditions: Temperature: 88-90° F. • Sky: Clear • Wind: 2-3 mph • Application Diluent: Water • Application Volume: 20 gallons per acre • Number of full days between application and harvest: 10 days • Post Harvest Seed Treatment: CruiserMaxx® Corn 250 Test Plot Treatments: • Plot 1—Untreated Check • Plot Size: Balance of Field • Plot 2—Treatment A • Defol® 5: 4.8 quarts per acre • Sodium cyanate: 6.4 grams per acre • Water: 75.2 quarts per acre • Plot Size: 16 acres • Plot 3—Defol® 750 Treatment Check • Defol® 750: 3.2 quarts per acre • Water: 76.8 quarts per acre • Plot Size: 16 acres • Plot 4—Treatment B • Sodium cyanate: 6.4 grams per acre • Water: 80 quarts per acre • Plot Size: 16 acres
(§3) Samples of corn seed from each of the three test plots were evaluated for desirable/saleable seed size and shape, as well as germination under certain test conditions: warm germination, cold germination and saturated cold germination. Each of the four evaluated categories (i.e., 24/21 Round, 21/16 Round, 24/21 Flat, 21/16 Flat) constituted desirable and saleable seed size and shape. The results were as follows:
as §2, with “D3910VT2P” for “D2905VT3P”, “Springville,” for “New Haven,”, “Very early start of dent” for “to Full Dent”, “50-55%” for “44%”, “17” for “10”
(§4) Samples of corn seed from each of the three test plots were evaluated for desirable/saleable seed size and shape, as well as germination under certain test conditions: warm germination, cold germination and saturated cold germination. Each of the four evaluated categories (i.e., 25/20 Round, 20/16 Round, 25/20 Flat, 20/16 Flat) constituted desirable and saleable seed size and shape.

Inbred Seed Corn [2] = experiment: Saturated cold (super cold) germination test of harvested seed; conditions: for SUPER COLD, sum: sum of the four size/shape categories
Excerpt: Seed quality can be evaluated by germination tests, such as warm germination, cold germination, and saturated cold germination. These types of tests are commonly used to predict seed germination and emergence. Among these tests, the saturated cold germination test exposes the seeds to cold, wet, and oxygen deficient stress, and is thus considered probative of seed germination viability over a range of field conditions.
The term “seed vigor” refers to a measure of the quality of a seed assemblage based on certain properties, such as percent germination, which can predict seed germination and emergence under a wide range of field conditions, particularly stress conditions. The methodology of the present disclosure can be followed to produce a seed assemblage that is characterized by enhanced seed vigor, as determined by seed vigor testing. […] One such technique is known as the saturated cold germination test. According to the Seed Vigor Testing Handbook by the Association of Official Seed Analysts (2009), the saturated cold germination test is the most stressful of various cold-test procedures for determining the vigor of a seed assemblage. In this test, the soil or planting medium is maintained at 100% water holding capacity for the duration of the test, which also subjects seeds to sub-optimal temperatures and soil-borne pathogens. These conditions evaluate seeds based on their response to three stress factors: imbibitional chilling injury, attack by soil-borne pathogens, and limited oxygen availability. These harsh conditions can allow testers to discriminate between seed assemblages differing in vigor, and thus the saturated cold germination test can act as a good indicator of seed quality for many crops. […]
as §2
Samples of corn seed from each of the three test plots were evaluated for desirable/saleable seed size and shape, as well as germination under certain test conditions: warm germination, cold germination and saturated cold germination. Each of the four evaluated categories (i.e., 24/21 Round, 21/16 Round, 24/21 Flat, 21/16 Flat) constituted desirable and saleable seed size and shape. The results were as follows: […]

Inbred Seed Corn [3] = experiment: Seed size and shape evaluation of seed from treated field plots (estimated units, bag weight, proportions); conditions: for % RDS: rounds as share of all units; for ABOVE 25: seed above size 25; for BELOW 17: seed below size 17; for EST. UNITS, total: sum of the four size/shape categories
Experimental: In an actively growing seed corn field scheduled to be treated with Drexel Defol® 750, four test plots were evaluated. Two plots were treated with Drexel Defol® 5, a sodium chlorate formulation containing 5 pounds of active sodium chlorate per gallon, and with varying amounts of cyanate anions. Sodium cyanate salt was used as the source of cyanate for its compatibility with sodium chlorate. The results of these two treatments were compared to an untreated check and a plot treated with Defol® 750, which contained 7.5 pounds of active sodium chlorate per gallon. The amount of active sodium chlorate applied in the three treated plots was equivalent.
• Crop: Inbred Seed Corn • Variety: A0036RMQKZ×HCL4011 • Plot Sizes: 5 acres for Plots 1-3; 7 acres for Plot 4 • Plot Location: Near Oxford, WI • Season/Year: Summer/2013 • Corn Stage: Full Dent • Application Equipment: Case Patriot Sprayer • Application Conditions: Temperature: 86° F. • Sky: Sunny • Wind: 4 mph • Application Diluent: Water • Application Volume: 20 gallons per acre • Number of full days between application and harvest: 24 days • Post Harvest Seed • Treatment: CruiserMaxx® Corn 250 Test Plot Treatments: • Plot 1—Untreated Check • Plot Size: 5 acres • Plot 2—Treatment A • Defol® 5: 4.8 quarts per acre • Sodium cyanate: 6.4 grams per acre • Water: 75.2 quarts per acre • Plot Size: 5 acres • Plot 3—Treatment B • Defol® 5: 4.8 quarts per acre • Sodium cyanate: 15.9 grams per acre • Water: 75.2 quarts per acre • Plot size: 5 acres • Plot 4—Defol® 750 Treatment Check • Defol® 750: 3.2 quarts per acre • Water: 76.8 quarts per acre • Plot size: 7 acres
Samples of corn seed from each of the four test plots were evaluated for seed size, shape, as well as germination under certain test conditions: warm germination, cold germination and saturated cold germination. Each of the four evaluated categories (i.e., 26/21 Round, 21/17 Round, 26/21 Flat, 21/17 Flat) constituted desirable and saleable seed size and shape. Evaluation was performed at Biodiagnostics, Inc., River Falls, WI. The results were as follows:
as §2, with “D2507VT3P” for “D2905VT3P”, “Jackson,” for “New Haven,”, “42%” for “44%”, “8” for “10”, “acres” for “acres • Plot 4—Treatment B • Sodium cyanate: 6.4 grams per acre • Water: 80 quarts per acre • Plot Size: 16 acres”
Samples of corn seed from each of the three test plots were evaluated for desirable/saleable seed size and shape, as well as germination under certain test conditions: warm germination, cold germination and saturated cold germination. Each of the four evaluated categories (i.e., 24/21 Round, 21/17 Round, 24/21 Flat, 21/17 Flat) constituted desirable and saleable seed size and shape. The results were as follows: […]

Inbred Seed Corn [4] = experiment: Cold germination test of harvested seed; conditions: for COLD GERM, sum: sum of the four size/shape categories
Excerpt: as §1, §2, §3
as §2, with “D3910VT2P” for “D2905VT3P”, “Springville,” for “New Haven,”, “Very early start of dent” for “to Full Dent”, “50-55%” for “44%”, “17” for “10”
as §4

[5] = Example 2 Hybrid 2 (D2905VT3P, 2014), seed size 21/16F
[6] = Example 2 Hybrid 2 (D2905VT3P, 2014), seed size 21/16R
[7] = Example 2 Hybrid 2 (D2905VT3P, 2014), seed size 24/21F
[8] = Example 2 Hybrid 2 (D2905VT3P, 2014), seed size 24/21R
[9] = Example 2 Hybrid 3 (D3910VT2P, 2014), seed size 20/16F
[10] = Example 2 Hybrid 3 (D3910VT2P, 2014), seed size 20/16R
[11] = Example 2 Hybrid 3 (D3910VT2P, 2014), seed size 25/20F
[12] = Example 2 Hybrid 3 (D3910VT2P, 2014), seed size 25/20R
[13] = Example 2 Hybrid 2, column headed GRAMS in the 8th table
[14] = Example 2 Hybrid 3, column headed GRAMS in the 12th table

In the case of `N#CO` [Cyanate, Sodium cyanate], the “WARM GERM” value (Inbred Seed Corn [1]; [5]) is reported as 96%, the “WARM GERM” value (Inbred Seed Corn [1]; [6]) is reported as 96% and the “WARM GERM” value (Inbred Seed Corn [1]; [7]) is reported as 99%. The “WARM GERM” value (Inbred Seed Corn [1]; [8]) was 98%, the “WARM GERM, sum” value (Inbred Seed Corn [1]; Example 2 Hybrid 2) was 389% and the “WARM GERM” value (Inbred Seed Corn [1]; [9]) was 98%. For the same compound, the “WARM GERM” value (Inbred Seed Corn [1]; [10]) was 96%, the “WARM GERM” value (Inbred Seed Corn [1]; [11]) was 99% and the “WARM GERM” value (Inbred Seed Corn [1]; [12]) was 99%. For the same compound, the “WARM GERM, sum” value (Inbred Seed Corn [1]; Example 2 Hybrid 3) was 392%, the “seed vigor based on the super cold germination percentage” value (Inbred Seed Corn [2]; Example 2, over the Untreated Checks, particularly Hybrid 3) was “increased seed vigor” and the “SUPER COLD” value (Inbred Seed Corn [2]; [5]) was 95%. For the same compound, the “SUPER COLD” value (Inbred Seed Corn [2]; [6]) was 92%, the “SUPER COLD” value (Inbred Seed Corn [2]; [7]) was 97% and the “SUPER COLD” value (Inbred Seed Corn [2]; [8]) was 99%. For the same compound, the “SUPER COLD, sum” value (Inbred Seed Corn [2]; Example 2 Hybrid 2) was 383%, the “SUPER COLD” value (Inbred Seed Corn [2]; [9]) was 90% and the “SUPER COLD” value (Inbred Seed Corn [2]; [10]) was 92%. For the same compound, the “SUPER COLD” value (Inbred Seed Corn [2]; [11]) was 95%, the “SUPER COLD” value (Inbred Seed Corn [2]; [12]) was 95% and the “SUPER COLD, sum” value (Inbred Seed Corn [2]; Example 2 Hybrid 3) was 372%. For the same compound, the “EST. BAG WT.” value (Inbred Seed Corn [3]; [5]) was 40.5 lbs, the “EST. UNITS” value (Inbred Seed Corn [3]; [5]) was 198 and the “EST. BAG WT.” value (Inbred Seed Corn [3]; [6]) was 45.7 lbs. The “EST. UNITS” value (Inbred Seed Corn [3]; [6]) was 392, the “EST. BAG WT.” value (Inbred Seed Corn [3]; [7]) was 51.6 lbs and the “EST. UNITS” value (Inbred Seed Corn [3]; [7]) was 180. For the same compound, the “EST. BAG WT.” value (Inbred Seed Corn [3]; [8]) was 60.5 lbs, the “EST. UNITS” value (Inbred Seed Corn [3]; [8]) was 253 and the “% SF OF ALL FL” value (Inbred Seed Corn [3]; Example 2 Hybrid 2, 21/16F units as share of 24/21F and 21/16F) was 52.38%. The “% SR OF ALL RDS” value (Inbred Seed Corn [3]; Example 2 Hybrid 2, 21/16R units as share of 24/21R and 21/16R) was 60.78%, the “% RDS” value (Inbred Seed Corn [3]; Example 2 Hybrid 2) was 63.05% and the “ABOVE 25” value (Inbred Seed Corn [3]; [13]) was 5. The “BELOW 17” value (Inbred Seed Corn [3]; [13]) was 21, the “EST. UNITS, total” value (Inbred Seed Corn [3]; Example 2 Hybrid 2) was 1023 and the “yields and proportions of seed at desirable and saleable sizes and shapes” value (Inbred Seed Corn [3]; Example 2 Hybrid 2 and Hybrid 3, compared to the Untreated Checks) was “higher yields and proportions”. For the same compound, the “EST. BAG WT.” value (Inbred Seed Corn [3]; [9]) was 40.1 lbs, the “EST. UNITS” value (Inbred Seed Corn [3]; [9]) was 232 and the “EST. BAG WT.” value (Inbred Seed Corn [3]; [10]) was 42.7 lbs. The “EST. UNITS” value (Inbred Seed Corn [3]; [10]) was 218, the “EST. BAG WT.” value (Inbred Seed Corn [3]; [11]) was 50.6 lbs and the “EST. UNITS” value (Inbred Seed Corn [3]; [11]) was 361. For the same compound, the “EST. BAG WT.” value (Inbred Seed Corn [3]; [12]) was 57 lbs, the “EST. UNITS” value (Inbred Seed Corn [3]; [12]) was 234 and the “% SF OF ALL FL” value (Inbred Seed Corn [3]; Example 2 Hybrid 3, 20/16F units as share of 25/20F and 20/16F) was 39.12%. For the same compound, the “% SR OF ALL RDS” value (Inbred Seed Corn [3]; Example 2 Hybrid 3, 20/16R units as share of 25/20R and 20/16R) was 48.23%, the “% RDS” value (Inbred Seed Corn [3]; Example 2 Hybrid 3) was 43.25% and the “ABOVE 25” value (Inbred Seed Corn [3]; [14]) was 4. For the same compound, the “BELOW 17” value (Inbred Seed Corn [3]; [14]) was 23, the “EST. UNITS, total” value (Inbred Seed Corn [3]; Example 2 Hybrid 3) was 1045 and the “bag weight, in words” value (Inbred Seed Corn [3]; Examples 1 and 2, compared to the Untreated Check) was “more desirable bag weights”. For the same compound, the “COLD GERM” value (Inbred Seed Corn [4]; [5]) was 98%, the “COLD GERM” value (Inbred Seed Corn [4]; [6]) was 96% and the “COLD GERM” value (Inbred Seed Corn [4]; [7]) was 99%. The “COLD GERM” value (Inbred Seed Corn [4]; [8]) was 96%, the “COLD GERM, sum” value (Inbred Seed Corn [4]; Example 2 Hybrid 2) was 389% and the “COLD GERM” value (Inbred Seed Corn [4]; [9]) was 95%. For the same compound, the “COLD GERM” value (Inbred Seed Corn [4]; [10]) was 95%, the “COLD GERM” value (Inbred Seed Corn [4]; [11]) was 96% and the “COLD GERM” value (Inbred Seed Corn [4]; [12]) was 97%. For the same compound, the “COLD GERM, sum” value (Inbred Seed Corn [4]; Example 2 Hybrid 3) was 383%.
